Laboratory results from PMC9067978, “Design, synthesis, and molecular docking studies of novel pomalidomide-based PROTACs as potential anti-cancer agents targeting EGFR^WT and EGFR^T790M” (Journal of Enzyme Inhibition and Medicinal Chemistry, 2022).
“Also recorded” adds a separate entry of the source.

What was measured:
[1] = system: EGFR phosphorylation; experiment: Western blotting, EGFR phosphorylation in A549 cells; type: cell-based, human; details: A549 cells, 0.1, 0.3 and 1 µM, erlotinib for comparison
Protocol: (§1) At a concentration of 100 nM, the time-dependent degradation activities of compounds 15–21 were also examined (Figure 5(A)).
(§2) Figure 5. (A) EGFR time-dependent degradation by compound 16 in A549 cell lines. Cells were treated with100 nM of 15–21 for indicated time points. Western blotting was used to evaluate EGFR protein, and densitometry was used to measure EGFR degradation, which was adjusted to the density of β-actin protein (n ¼2). (B) Compounds 15 and 16 have EGFR degradation and phosphorylation inhibitory action in A549 cells. The cells were exposed to concentrations of 0.1, 0.3, and 1 µM. Erlotinib were utilised for comparison. […]
(§3) Cells were seeded in 6-well plates at 1 × 10^6 per well, incubated at 37 °C with 5% CO2 for 24 h before drug exposure. […] The results were detected by an enhanced chemiluminescence system (Mill-pore). […]

[2] = system: Akt phosphorylation; experiment: Western blotting, Akt phosphorylation in A549 cells; type: cell-based, human; details: A549 cells, 0.1, 0.3 and 1 µM, erlotinib for comparison
Protocol: as §1, §2, §3

[3] = system: HepG-2; experiment: DNA-flow cytometric cell cycle analysis, HepG-2; type: cell-based, human; details: 3.02 µM, 24 hours
Protocol: Then, the influence of compound 16 on the cell cycle profile was then investigated.
The cells that had been tested were then trypsinized and washed in sterilised phosphate buffer saline (PBS). The collected cells were fixed with cold ethanol (100%, 1.5 ml). According to the manufacturer’s instructions, a Cycle TESTTM PLUS DNA Reagent Kit was used to dye the cells (BD Biosciences, San Jose, CA). A flow cytometer was used to assess cell-cycle distribution.[52]

[4] = system: MCF-7; experiment: Annexin V/propidium iodide apoptosis assay, MCF-7; type: cell-based, human; details: 3.92 µM, 24 hours
Protocol: (§4) The double staining Annexin V/propidium iodide technique was performed to assess the mechanism of cell death and apoptosis-inducing activity.[46] […] As shown in (Figure 7 (A and B).
(§5) The negative control was chosen to be DMSO. The cells were then collected and washed twice in PBS. The cells were separated using centrifugation. An apoptosis detection kit (BD Biosciences, SanJose, CA) was used in this investigation. Following the manufacturer’s instructions, the cells were dyed with Annexin V-FITC and propidium iodide (PI) in the binding buffer for 20 minutes at 37 °C in the darkness. A flow cytometer was used to assess the binding of Annexin V-FITC and PI. The frequencies in all quadrants were investigated using the Flowjo program.[53]

[5] = system: HCT-116; experiment: Annexin V/propidium iodide apoptosis assay, HCT-116; type: cell-based, human; details: 3.32 µM, 24 hours
Protocol: as §4, §5

[6] = system: caspase-3; experiment: Caspase-3 determination (ELISA) in HepG-2 cells; type: cell-based, human; details: HepG-2, 3.02 µM, 24 hours
Protocol: Caspase-3 activation was measured using a Caspase-3 ELISA Kit (KHO1091).

[7] = system: A549; experiment: MTT anti-proliferative assay, A549
Protocol: (§6) The anti-proliferative activity was quantified in the following way. At a density of 3–8 × 10^3 cells per well, human cancer cell lines were introduced to 96-well plates. The wells were then incubated at 37 °C for 12 hours in 5% CO2 incubator. To determine the DMSO content, the culture media was swapped with 0.1 ml of fresh medium containing graded amounts of the test compounds for each well. Incubation time for the wells was two days. The cells were then cultured in 100 µl MTT solution (5 µg ml^−1) for another 4 hours in each well.
(§7) The absorbance of each well was measured at 490 nm with an automated ELISA reader system (TECAN, CHE) after MTT-formazan crystals were dissolved in 100 µl of DMSO. The IC50 values were calculated using nonlinear regression fitting models (Graph Pad, Prism Version 5). The results were expressed as means ± SD and were based on the average of three separate, duplicate trials.

[8] = system: MCF-7; experiment: MTT anti-proliferative assay, MCF-7
Protocol: as §6, §7

[9] = system: HepG-2; experiment: MTT anti-proliferative assay, HepG-2
Protocol: as §6, §7

[10] = system: HCT-116; experiment: MTT anti-proliferative assay, HCT-116
Protocol: as §6, §7

[11] = ratio of cytotoxic IC50 to erlotinib

**Q.** Which “inhibition of EGFR phosphorylation, in words” value [1] does the source give for `Cn1c(=O)c(C(=O)NNCCOCCOCC(=O)Nc2cccc3c2C(=O)N(C2CCC(=O)NC2=O)C3=O)nc2ccccc21` (stereo not shown) [Compound 16, N-(2-(2,6-dioxopiperidin-3-yl)-1,3-dioxoisoindolin-4-yl)-2-(2-(2-(2-(4-methyl-3-oxo-3,4-dihydroquinoxaline-2-carbonyl) hydrazinyl)ethoxy)ethoxy) acetamide] here?
**A.** Its value is “effectively displayed inhibitory activity”.

**Q.** And the “inhibition of Akt phosphorylation, in words” value [2]?
**A.** The value was “effectively displayed inhibitory activity; also recorded: comparable to erlotinib”.

**Q.** And the “fold increase of cells in G2-M phase vs control, HepG-2” value [3]?
**A.** Its value is 1.61 fold.

**Q.** What about the “fold increase of cells in pre-G1 phase vs control, HepG-2” value [3] of the same compound?
**A.** The value was 6.76 fold.

**Q.** What about the “cellular apoptosis, early and late, times vs control, MCF-7” value [4] of the same compound?
**A.** Its value is about 9 times.

**Q.** What about the “early apoptosis ratio, MCF-7” value [4] of the same compound?
**A.** The value was 4.18%.

**Q.** And the “late apoptosis ratio, MCF-7” value [4]?
**A.** Its value is 5.07%.

**Q.** And the “cellular apoptosis, early and late, times vs control, HCT-116” value [5]?
**A.** The value was about 9 times.

**Q.** What about the “early apoptosis ratio, HCT-116” value [5] of the same compound?
**A.** The value was 5.96%.

**Q.** What about the “late apoptosis ratio, HCT-116” value [5] of the same compound?
**A.** The value was 5.15%.

**Q.** And the “increase of caspase-3 level vs control cells” value [6]?
**A.** The value was 6.31 fold.

**Q.** What about the IC50 ([7]; Homo sapiens, A549, read-out: IC50 A549) of the same compound?
**A.** Its IC50 is 2.69 ± 0.09 µM.

**Q.** What about the “folds more active than erlotinib, A549” value [7, 11] of the same compound?
**A.** The value was 7.18 folds.

**Q.** And the IC50 ([8]; Homo sapiens, MCF7, read-out: IC50 MCF-7)?
**A.** The IC50 was 3.92 ± 0.19 µM.

**Q.** What about the “folds more active than erlotinib, MCF-7” value [8, 11] of the same compound?
**A.** Its value is 5.55 folds.

**Q.** And the IC50 ([9]; Homo sapiens, HepG2, read-out: IC50 HepG-2)?
**A.** Its IC50 is 3.02 ± 0.12 µM.

**Q.** And the “folds more active than erlotinib, HepG-2” value [9, 11]?
**A.** The value was 4.34 folds.

**Q.** What about the IC50 ([10]; Homo sapiens, HCT-116, read-out: IC50 HCT-116) of the same compound?
**A.** The IC50 was 3.32 ± 0.15 µM.

**Q.** What about the “folds more active than erlotinib, HCT-116” value [10, 11] of the same compound?
**A.** Its value is 5.04 folds.
